# According to publication PMC11277489, “Novel Piperazine Derivatives of Vindoline as Anticancer Agents” (International Journal of Molecular Sciences, 2024):
# Tests used:
# [1] = system: TK-10; test: NCI60 one-dose screen (10 μM), Renal Cancer; type: cell-based; settings: Homo sapiens; 10 μM; TK-10, Renal Cancer; read-out: Growth percent rate
# [2] = system: OVCAR-4; test: NCI60 five-dose screen, Ovarian Cancer; type: cell-based; settings: Homo sapiens; OVCAR-4, Ovarian Cancer; five-dose screen; read-out: GI50
# [3] = system: T-47D; test: NCI60 one-dose screen (10 μM), Breast Cancer; type: cell-based; settings: Homo sapiens, T47D; 10 μM; T-47D, Breast Cancer; read-out: Growth percent rate
# [4] = system: MALME-3M; test: NCI60 one-dose screen (10 μM), Melanoma; type: cell-based; settings: Homo sapiens; 10 μM; MALME-3M, Melanoma; read-out: Growth percent rate
# [5] = system: PC-3; test: NCI60 five-dose screen, Prostate Cancer; type: cell-based; settings: Homo sapiens; PC-3, Prostate Cancer; five-dose screen; read-out: GI50
# [6] = system: MOLT-4; test: NCI60 five-dose screen, Leukemia; type: cell-based; settings: Homo sapiens; MOLT-4, Leukemia; five-dose screen; read-out: GI50
# [7] = system: NCI-H460; test: NCI60 five-dose screen, Non-small Cell Lung Cancer; type: cell-based; settings: Homo sapiens; NCI-H460, Non-small Cell Lung Cancer; five-dose screen; read-out: GI50
# [8] = system: OVCAR-3; test: NCI60 five-dose screen, Ovarian Cancer; type: cell-based; settings: Homo sapiens; OVCAR-3, Ovarian Cancer; five-dose screen; read-out: GI50
# [9] = system: MCF7; test: NCI60 five-dose screen, Breast Cancer; type: cell-based; settings: Homo sapiens; MCF7, Breast Cancer; five-dose screen; read-out: GI50
# [10] = system: A549/ATCC; test: NCI60 five-dose screen, Non-small Cell Lung Cancer; type: cell-based; settings: Homo sapiens; A549/ATCC, Non-small Cell Lung Cancer; five-dose screen; read-out: GI50
# [11] = system: HOP-92; test: NCI60 one-dose screen (10 μM), Non-small Cell Lung Cancer; type: cell-based; settings: Homo sapiens; 10 μM; HOP-92, Non-small Cell Lung Cancer; read-out: Growth percent rate
# [12] = system: IGROV1; test: NCI60 five-dose screen, Ovarian Cancer; type: cell-based; settings: Homo sapiens, IGROV-1; IGROV1, Ovarian Cancer; five-dose screen; read-out: GI50
# [13] = system: UO-31; test: NCI60 five-dose screen, Renal Cancer; type: cell-based; settings: Homo sapiens; UO-31, Renal Cancer; five-dose screen; read-out: GI50
# [14] = system: SF-295; test: NCI60 one-dose screen (10 μM), CNS Cancer; type: cell-based; settings: Homo sapiens; 10 μM; SF-295, CNS Cancer; read-out: Growth percent rate
# [15] = system: SN12C; test: NCI60 five-dose screen, Renal Cancer; type: cell-based; settings: Homo sapiens, Renal Cancer, five-dose screen, read-out: GI50
# [16] = system: HS 578T; test: NCI60 five-dose screen, Breast Cancer; type: cell-based; settings: Homo sapiens; HS 578T, Breast Cancer; five-dose screen; read-out: GI50
# [17] = system: LOX IMVI; test: NCI60 one-dose screen (10 μM), Melanoma; type: cell-based, human; settings: Homo sapiens; 10 μM; LOX IMVI, Melanoma; read-out: Growth percent rate
# [18] = system: PC-3; test: NCI60 one-dose screen (10 μM), Prostate Cancer; type: cell-based; settings: Homo sapiens; 10 μM; PC-3, Prostate Cancer; read-out: Growth percent rate
# [19] = system: 786–0; test: NCI60 five-dose screen, Renal Cancer; type: cell-based; settings: Homo sapiens; 786–0, Renal Cancer; five-dose screen; read-out: GI50
# [20] = system: KM12; test: NCI60 one-dose screen (10 μM), Colon Cancer; type: cell-based, human; settings: Homo sapiens; 10 μM; KM12, Colon Cancer; read-out: Growth percent rate
# [21] = system: SR; test: NCI60 five-dose screen, Leukemia; type: cell-based; settings: Homo sapiens, Leukemia, five-dose screen, read-out: GI50
# [22] = system: SNB-19; test: NCI60 one-dose screen (10 μM), CNS Cancer; type: cell-based; settings: Homo sapiens; 10 μM; SNB-19, CNS Cancer; read-out: Growth percent rate
# [23] = system: TK-10; test: NCI60 five-dose screen, Renal Cancer; type: cell-based; settings: Homo sapiens; TK-10, Renal Cancer; five-dose screen; read-out: GI50
# [24] = system: MDA-MB231ATCC; test: NCI60 five-dose screen, Breast Cancer; type: cell-based; settings: Homo sapiens, MDA-MB-231; MDA-MB231ATCC, Breast Cancer; five-dose screen; read-out: GI50
# [25] = system: UACC-62; test: NCI60 one-dose screen (10 μM), Melanoma; type: cell-based; settings: Homo sapiens; 10 μM; UACC-62, Melanoma; read-out: Growth percent rate
# [26] = system: SW-620; test: NCI60 five-dose screen, Colon Cancer; type: cell-based; settings: Homo sapiens; SW-620, Colon Cancer; five-dose screen; read-out: GI50
# [27] = system: OVCAR-5; test: NCI60 one-dose screen (10 μM), Ovarian Cancer; type: cell-based; settings: Homo sapiens; 10 μM; OVCAR-5, Ovarian Cancer; read-out: Growth percent rate
# [28] = system: UACC-257; test: NCI60 five-dose screen, Melanoma; type: cell-based; settings: Homo sapiens; UACC-257, Melanoma; five-dose screen; read-out: GI50
# [29] = system: CCRF-CEM; test: NCI60 five-dose screen, Leukemia; type: cell-based; settings: Homo sapiens, Leukemia, five-dose screen, read-out: GI50
# [30] = system: BT-549; test: NCI60 one-dose screen (10 μM), Breast Cancer; type: cell-based; settings: Homo sapiens; 10 μM; BT-549, Breast Cancer; read-out: Growth percent rate
# [31] = system: SNB-75; test: NCI60 five-dose screen, CNS Cancer; type: cell-based; settings: Homo sapiens; SNB-75, CNS Cancer; five-dose screen; read-out: GI50
# [32] = system: NCI-H522; test: NCI60 five-dose screen, Non-small Cell Lung Cancer; type: cell-based; settings: Homo sapiens; NCI-H522, Non-small Cell Lung Cancer; five-dose screen; read-out: GI50
# [33] = system: SR; test: NCI60 one-dose screen (10 μM), Leukemia; type: cell-based; settings: Homo sapiens, 10 μM, Leukemia, read-out: Growth percent rate
# [34] = system: MALME-3M; test: NCI60 five-dose screen, Melanoma; type: cell-based; settings: Homo sapiens; MALME-3M, Melanoma; five-dose screen; read-out: GI50
# [35] = system: HCC-2998; test: NCI60 five-dose screen, Colon Cancer; type: cell-based; settings: Homo sapiens; HCC-2998, Colon Cancer; five-dose screen; read-out: GI50
# [36] = system: NCI-H322M; test: NCI60 five-dose screen, Non-small Cell Lung Cancer; type: cell-based; settings: Homo sapiens, Non-small Cell Lung Cancer, five-dose screen, read-out: GI50
# [37] = system: SK-OV-3; test: NCI60 one-dose screen (10 μM), Ovarian Cancer; type: cell-based; settings: Homo sapiens; 10 μM; SK-OV-3, Ovarian Cancer; read-out: Growth percent rate
# [38] = system: KM12; test: NCI60 five-dose screen, Colon Cancer; type: cell-based; settings: Homo sapiens; KM12, Colon Cancer; five-dose screen; read-out: GI50
# [39] = system: UO-31; test: NCI60 one-dose screen (10 μM), Renal Cancer; type: cell-based; settings: Homo sapiens; 10 μM; UO-31, Renal Cancer; read-out: Growth percent rate
# [40] = system: ACHN; test: NCI60 five-dose screen, Renal Cancer; type: cell-based; settings: Homo sapiens, Renal Cancer, five-dose screen, read-out: GI50
# [41] = system: NCI/ADR-RES; test: NCI60 five-dose screen, Ovarian Cancer; type: cell-based; settings: Homo sapiens, Ovarian Cancer, five-dose screen, read-out: GI50
# [42] = system: NCI-H226; test: NCI60 one-dose screen (10 μM), Non-small Cell Lung Cancer; type: cell-based; settings: Homo sapiens; 10 μM; NCI-H226, Non-small Cell Lung Cancer; read-out: Growth percent rate
# [43] = system: MDA-MB-231/ATCC; test: NCI60 one-dose screen (10 μM), Breast Cancer; type: cell-based, human; settings: Homo sapiens; 10 μM; MDA-MB-231/ATCC, Breast Cancer; read-out: Growth percent rate
# [44] = system: OVCAR-5; test: NCI60 five-dose screen, Ovarian Cancer; type: cell-based; settings: Homo sapiens; OVCAR-5, Ovarian Cancer; five-dose screen; read-out: GI50
# [45] = system: MDA-MB-468; test: NCI60 one-dose screen (10 μM), Breast Cancer; type: cell-based; settings: Homo sapiens; 10 μM; MDA-MB-468, Breast Cancer; read-out: Growth percent rate
smiles,measurement,setting,value
CC[C@]12C=CCN3CC[C@@]4(c5ccc(OC)cc5N(C)[C@H]4[C@@](O)(C(=O)OC)[C@@H]1OC(=O)CCCN1CCN(Cc4ccc(C(F)(F)F)cc4)CC1)[C@@H]32 [Compound 23],activity at 10 µM,[1],-81.7%
same,GI50,[2],2040 nM
same,activity at 10 µM,[3],-20%
same,activity at 10 µM,[4],-95.2%
same,GI50,[5],1580 nM
same,GI50,[6],1150 nM
same,GI50,[7],1550 nM
same,GI50,[8],1550 nM
same,GI50,[9],1550 nM
same,GI50,[10],1780 nM
same,activity at 10 µM,[11],-70.7%
same,GI50,[12],1780 nM
same,GI50,[13],1580 nM
same,activity at 10 µM,[14],-86.7%
same,GI50,[15],2090 nM
same,GI50,[16],1510 nM
same,activity at 10 µM,[17],-54.4%
same,activity at 10 µM,[18],-72%
same,GI50,[19],1480 nM
same,activity at 10 µM,[20],-70.9%
same,GI50,[21],1660 nM
same,activity at 10 µM,[22],-89.1%
same,GI50,[23],1660 nM
same,GI50,[24],1740 nM
same,activity at 10 µM,[25],-91.5%
same,GI50,[26],1550 nM
same,activity at 10 µM,[27],-86%
same,GI50,[28],1740 nM
same,GI50,[29],2040 nM
same,activity at 10 µM,[30],-92.4%
same,GI50,[31],1450 nM
same,GI50,[32],1700 nM
same,activity at 10 µM,[33],-55.2%
same,GI50,[34],1580 nM
same,GI50,[35],1510 nM
same,GI50,[36],2240 nM
same,activity at 10 µM,[37],-44%
same,GI50,[38],1740 nM
same,activity at 10 µM,[39],-69.5%
same,GI50,[40],1780 nM
same,GI50,[41],1580 nM
same,activity at 10 µM,[42],-32.3%
same,activity at 10 µM,[43],-94.4%
same,GI50,[44],1620 nM
same,activity at 10 µM,[45],-58.2%
